Test [1] has as its system S. aureus ATCC 29213. The test is described as follows: Minimal effective concentration (MEC) of EPI for EtBr. The settings on record: S. aureus ATCC 29213; lowest amount of EPI which produces the maximum effect on the MIC of ethidium bromide. The class given is cell-based. Here is the method: The MEC was determined as the minimal concentration of EPI that produced the maximal reduction in substrate MIC.
The minimum effective concentration (MEC) for inhibition of EtBr efflux was determined in S. aureus, E. faecalis and S. pneumoniae for A-106 and C-9; reserpine was used as a comparator (Table 1).

In test [2] the test system is S. aureus ATCC 29213. The test is described as follows: MIC by NCCLS microdilution, antibacterial agents with and without EPI. The class given is cell-based. As to conditions: S. aureus ATCC 29213. Here is the method:
3% sterile laked horse blood (Quad Five, Ryegate, Mont.) was added to assays for E. faecalis and S. Pneumoniae. A final concentration of 1% DMSO was present in all assays. […]
A-106 and C-9 were tested at their respective MECs in combination with a variety of different classes of antibiotics against S. aureus ATCC 29213 (Table 2).

[3] abbreviates: EPIs used at the MEC, except VX-710 at 100 μg/ml.

Here are results for one compound from US20090291964A1, “Potentiators of Antibacterial Activity” (priority 2003, published 2009).

Turning to `COc1cc(C(=O)C(=O)N2CCCCC2C(=O)OC(CCCc2ccccc2)CCCc2cccnc2)cc(OC)c1OC` (stereo not shown) [VRT-010367], the “MEC of EPI” value with S. aureus ATCC 29213 [1] was found to be 1.6 µg/mL. Further, the “MIC of EPI” value in the test on S. aureus ATCC 29213 [2] (EPI alone) was greater than 50 µg/mL. In the test on S. aureus ATCC 29213 [2] (setting [3]), the “Fold-reduction in EtBr MIC” value is 2 and the “MIC of EtBr with EPI” value was 3.1 µg/mL.
